What was measured:
Type in all cases: biochemical
Kdr = biological target: T1, Kdr (Homo sapiens, UniProt P35968); assay: Z'-Lyte FRET kinase assay (Invitrogen), Kdr; conditions: read-out: IC50, activity toward kinase Kdr
T1 construct: purchased Invitrogen (assay run by Invitrogen)

MAPKAPK2 = biological target: T2, MAPKAPK2 (Homo sapiens, UniProt P49137); assay: Z'-Lyte FRET kinase assay (Invitrogen), MAPKAPK2; conditions: read-out: IC50, activity toward kinase MAPKAPK2
T2 construct: purchased Invitrogen (assay run by Invitrogen)
Text: The effect of potential modulators of kinase activity can be measured in a variety of different assays known in the art. For example, direct radiometric, indirect FRET or AlphaScreen assays may be used to assess the level of phosphorylation of a substrate in the presence of test compounds in order to determine the inhibitory affect of the compound on the kinase. Invitrogen (Carlsbad, Calif.) uses a FRET based assay for Btk, EGFR, EphB2, Flt3, lrak4, Kdr, MAP2K1, MAPKAPK2, PDGFRB, PKC theta, Stk6 and Yes. For these assays, compounds of the invention were screened by Invitrogen using Z′-Lyte™ kinase assay.
Briefly, the Invitrogen kinase assay involves use of a specific peptide substrate optimized for each kinase, containing a fluorophore at each end that make up the FRET pair. The peptide sensitivity to proteolytic cleavage depends on phosphorylation of the peptide. Non-phosphorylated peptide is cleaved by a protease while peptide phosphorylated by the kinase is not cleaved. Cleavage of the peptide disrupts the FRET between the donor (coumarin) and acceptor (fluorescein) fluorophores, resulting in an increase in the ratio of donor emission to acceptor emission. The emission ratio of coumarin to fluorescein is used to assess the reaction progress. The extent of phosphorylation is determined from the emission ratio, which is low when the kinase is active (phosphorylated peptide is not cleaved, FRET pair connected) or higher for inhibited kinase (non-phosphorylated peptide is cleaved, FRET pair separated). Thus, the assay involves a kinase reaction in the presence of varying concentrations of a given compound, a development reaction with site specific protease, and detection of the fluorescent emission ratio of coumarin and fluorscein. […] Reaction conditions for each kinase are determined to provide optimal reaction times, incubation temperature, kinase and ATP concentrations. Test samples are made up in 1× kinase buffer (50 mM HEPES pH 7.5, 50 mM MgCl2, 5 mM EGTA, 0.05% BRIJ-35) and compound at desired concentration prepared in DMSO such that the final DMSO is 1%. […] Typically, assay plates are prepared to 10 μl final volume per sample, adding 2.5 μl of compound at 4× the desired concentration in 4% DMSO (serial dilution of compound provides concentration curve), 5 μl of the desired kinase mixed with Z′-LYTE™ peptide substrate (2× in 2× kinase buffer, final peptide at 2 μM), and 2.5 μl of 4×ATP solution. All kinase except for MAP2K1 were at 10 μM ATP in the kinase reaction, while MAP2K1 was at 100 μM. Samples are mixed and the kinase reaction is incubated 1 hour at room temperature, after which 5 μl of development solution is added and mixed. After incubation for another 1 hour at room temperature, 5 μl of stop reagent is added to each sample and mixed. The fluorescence signals are measured to determine the emission ratio.

Gsk3β = Gsk3β (Homo sapiens, UniProt P49841); assay: AlphaScreen kinase assay, Gsk3β; conditions: read-out: IC50, activity toward kinase Gsk3β
Method in brief: (§1)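 AlphaScreen, biotin-peptide substrate; streptavidin donor/anti-phospho acceptor beads; decreased emission = inhibition. Cpds 20 mM DMSO stock, 1:3 x 8 conc.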

Stk6 = biological target: T3, Stk6 (Homo sapiens, UniProt O14965); assay: Z'-Lyte FRET kinase assay (Invitrogen), Stk6; conditions: read-out: IC50, activity toward kinase Stk6
T3 construct: purchased Invitrogen (Carlsbad, Calif.), screening service
T3 sequence (O14965 1-403): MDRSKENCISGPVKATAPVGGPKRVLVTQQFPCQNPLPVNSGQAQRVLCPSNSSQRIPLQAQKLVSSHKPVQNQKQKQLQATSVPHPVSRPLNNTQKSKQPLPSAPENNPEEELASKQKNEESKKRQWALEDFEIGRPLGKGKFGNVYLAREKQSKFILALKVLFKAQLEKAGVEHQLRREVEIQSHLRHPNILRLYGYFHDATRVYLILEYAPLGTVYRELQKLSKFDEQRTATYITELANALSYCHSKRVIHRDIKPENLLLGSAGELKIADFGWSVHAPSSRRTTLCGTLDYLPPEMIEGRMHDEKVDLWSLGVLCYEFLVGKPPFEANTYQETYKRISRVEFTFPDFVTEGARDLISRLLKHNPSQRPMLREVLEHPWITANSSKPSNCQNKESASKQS

Fak = biological target: T4, Fak (Homo sapiens, UniProt Q05397); assay: AlphaScreen kinase assay, Fak; conditions: read-out: IC50, activity toward kinase Fak
T4 construct: P1358.pFastBacHtb FAK S411-Q686-X; His6 with pFastBacHTb leader (TEV site) (N); made in house; host or cells: Sf9 (baculovirus)

Frk = Frk (Homo sapiens, UniProt P42685); assay: AlphaScreen kinase assay, Frk; conditions: read-out: IC50, activity toward kinase Frk
Text: (§2) AlphaScreen assay was used to screen additional kinases. The assay is similarly dependent on the phosphorylation of a peptide substrate. In this assay, an antibody that recognizes phosphorylated substrate is bound to an acceptor bead. The peptide substrate is attached to biotin, which binds to a donor head that contains streptavidin. Thus phosphorylated substrate is bound by antibody and streptavidin, bringing the donor and acceptor heads into close proximity when kinase is not inhibited. The donor produces singlet oxygen which results in emission from the acceptor when they are in close proximity. Conversely, when kinase is inhibited, the donor and acceptor beads are not associated and the emission from the acceptor is reduced.
(§3) AlphaScreen assays were done using compounds dissolved in DMSO to a concentration of 20 mM. The compounds were diluted accordingly to the desired final concentrations in each sample well, using 1:3 serial dilution for a total of 8 concentration points.

PDGFRA = PDGFRA (Homo sapiens, UniProt P16234); assay: AlphaScreen kinase assay, PDGFRA; conditions: read-out: IC50, activity toward kinase PDGFRA
Text: as §2, §3

B-Raf V600E = biological target: T5, B-Raf V600E (Homo sapiens, UniProt P15056, V600E); assay: AlphaScreen kinase assay, B-Raf V600E; conditions: read-out: IC50, activity toward kinase B-Raf V600E
T5 construct: P4254. pFastBacBD-CDC37 BRAF D437-K722-X, V600E; His6 with pFastBac HT leader (TEV site) (N); made in house; host or cells: Sf9 (baculovirus; chaperone CDC37 co-expressed)

Btk = biological target: T6, Btk (Homo sapiens, UniProt Q06187); assay: Z'-Lyte FRET kinase assay (Invitrogen), Btk; conditions: read-out: IC50, activity toward kinase Btk
T6 construct: purchased Invitrogen (assay run by Invitrogen)

B-Raf = biological target: T7, B-Raf (Homo sapiens, UniProt P15056); assay: AlphaScreen kinase assay, B-Raf; conditions: read-out: IC50, activity toward kinase B-Raf
T7 construct: purchased Upstate Biotechnology

Abl = biological target: T8, Abl (Homo sapiens, UniProt P00519); assay: AlphaScreen kinase assay, Abl; conditions: read-out: activity toward kinase Abl, IC50
T8 construct: P1121. pET-SPEC BI-PTP Abl G227-V515-X; His6 (N); made in house; host or cells: E. coli (PTP1B co-expressed)
T8 sequence (P00519 with tags, fused parts or gaps): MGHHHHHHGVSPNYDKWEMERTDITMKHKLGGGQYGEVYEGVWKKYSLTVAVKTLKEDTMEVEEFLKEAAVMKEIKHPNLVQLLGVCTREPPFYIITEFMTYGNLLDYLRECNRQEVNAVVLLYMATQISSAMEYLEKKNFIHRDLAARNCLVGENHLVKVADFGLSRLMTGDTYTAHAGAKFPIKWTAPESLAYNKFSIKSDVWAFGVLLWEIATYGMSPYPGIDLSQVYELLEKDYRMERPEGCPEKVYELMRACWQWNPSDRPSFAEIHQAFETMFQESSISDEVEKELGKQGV
Method in brief: as §1

Src = biological target: T9, Src (Homo sapiens, UniProt P12931); assay: AlphaScreen kinase assay, Src; conditions: read-out: IC50, activity toward kinase Src
T9 construct: P1144. pET-N6 BI-PTP SRC V86-L536-X; made in house

FGFR1 = biological target: T10, FGFR1 (Homo sapiens, UniProt P11362, C488A/C584S); assay: AlphaScreen kinase assay, FGFR1; conditions: read-out: IC50, activity toward kinase FGFR
T10 construct: P1351.pET N6 BI-PTP FGFR A458-E765-X C488A, C584S; made in house; host or cells: E. coli (PTP1B co-expressed)

Brk = Brk (Homo sapiens, UniProt Q13882); assay: AlphaScreen kinase assay, Brk; conditions: read-out: IC50, activity toward kinase Brk
Text: as §2, §3

Kit = biological target: T11, Kit (Homo sapiens, UniProt P10721); assay: AlphaScreen kinase assay, Kit; conditions: read-out: IC50, activity toward kinase Kit
T11 construct: P1332.N6 BI PTP KIT M552-K948-X COD; His6 (N); made in house; host or cells: E. coli (PTP1B co-expressed)

MAP4K4 = MAP4K4 (Homo sapiens, UniProt O95819); assay: AlphaScreen kinase assay, MAP4K4; conditions: read-out: IC50, activity toward kinase MAP4K4
Experimental: AlphaScreen assays were done using compounds dissolved in DMSO to a concentration of 20 mM. The compounds were diluted accordingly to the desired final concentrations in each sample well, using 1:3 serial dilution for a total of 8 concentration points. Plates were prepared such that each kinase reaction is 20 μl in 1× kinase buffer, 5% DMSO and 10 μM ATP. After incubation of the kinase reaction for 1 hour at room temperature, 5 μl of donor beads in stop buffer (50 mM EDTA in 1× kinase buffer) was added, the sample was mixed and incubated for 20 minutes at room temperature before adding 5 μl of acceptor beads in stop buffer. The samples were incubated for 60 minutes at room temperature and the signal per well was read on AlphaQuest reader.

c-Raf-1 = biological target: T12, c-Raf-1 (Homo sapiens, UniProt P04049); assay: AlphaScreen kinase assay, c-Raf-1; conditions: read-out: IC50, activity toward kinase c-Raf-1
T12 construct: purchased Upstate Biotechnology

Csk = Csk (Homo sapiens, UniProt P41240); assay: AlphaScreen kinase assay, Csk; conditions: read-out: IC50, activity toward kinase Csk
Text: as §2, §3

Fms = biological target: T13, Fms (Homo sapiens, UniProt P07333); assay: AlphaScreen kinase assay, Fms; conditions: read-out: IC50, activity toward kinase Fms
T13 construct: purchased Upstate Biotechnology

Hck = Hck (Homo sapiens, UniProt P08631); assay: AlphaScreen kinase assay, Hck; conditions: read-out: IC50, activity toward kinase Hck
Text: as §2, §3

IKK beta = biological target: T14, IKK beta (Homo sapiens, UniProt O14920); assay: AlphaScreen kinase assay, IKK beta; conditions: read-out: IC50, activity toward kinase IKK beta
T14 sequence (O14920 1-756): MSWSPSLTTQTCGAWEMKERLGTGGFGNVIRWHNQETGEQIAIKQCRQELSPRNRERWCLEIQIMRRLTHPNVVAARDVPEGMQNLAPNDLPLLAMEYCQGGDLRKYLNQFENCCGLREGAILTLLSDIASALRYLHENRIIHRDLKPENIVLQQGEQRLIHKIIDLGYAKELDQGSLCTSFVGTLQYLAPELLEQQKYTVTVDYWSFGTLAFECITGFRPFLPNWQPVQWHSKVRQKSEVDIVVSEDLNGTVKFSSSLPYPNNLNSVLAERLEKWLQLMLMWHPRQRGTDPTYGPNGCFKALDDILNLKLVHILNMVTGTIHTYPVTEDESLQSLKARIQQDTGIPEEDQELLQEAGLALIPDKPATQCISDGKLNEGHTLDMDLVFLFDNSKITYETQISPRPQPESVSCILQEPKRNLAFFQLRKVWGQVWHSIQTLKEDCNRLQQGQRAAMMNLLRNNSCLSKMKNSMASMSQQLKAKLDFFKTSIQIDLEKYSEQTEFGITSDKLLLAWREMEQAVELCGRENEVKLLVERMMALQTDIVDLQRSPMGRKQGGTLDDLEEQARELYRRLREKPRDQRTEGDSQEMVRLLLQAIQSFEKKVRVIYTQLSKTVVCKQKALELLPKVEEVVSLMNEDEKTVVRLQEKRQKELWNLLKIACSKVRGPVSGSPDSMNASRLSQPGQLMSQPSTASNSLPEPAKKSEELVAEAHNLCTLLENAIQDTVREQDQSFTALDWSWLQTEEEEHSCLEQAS

Pyk2 = biological target: T15, Pyk2 (Homo sapiens, UniProt Q14289); assay: AlphaScreen kinase assay, Pyk2; conditions: read-out: IC50, activity toward kinase Pyk2
T15 construct: purchased Upstate Biotechnology

Measured: IC50

T11 sequence (P10721 with tags, fused parts or gaps): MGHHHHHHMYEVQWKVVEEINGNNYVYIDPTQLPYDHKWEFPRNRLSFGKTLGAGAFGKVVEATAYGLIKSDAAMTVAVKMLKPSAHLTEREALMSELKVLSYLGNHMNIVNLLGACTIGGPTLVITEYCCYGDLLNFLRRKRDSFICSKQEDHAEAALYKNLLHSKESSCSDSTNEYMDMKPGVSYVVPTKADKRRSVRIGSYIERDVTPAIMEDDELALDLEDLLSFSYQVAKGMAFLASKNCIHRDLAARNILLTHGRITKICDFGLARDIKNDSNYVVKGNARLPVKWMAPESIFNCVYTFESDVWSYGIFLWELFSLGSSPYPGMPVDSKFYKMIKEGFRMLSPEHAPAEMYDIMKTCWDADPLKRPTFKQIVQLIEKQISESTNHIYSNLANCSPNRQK
T2 sequence (P49137 whole entry): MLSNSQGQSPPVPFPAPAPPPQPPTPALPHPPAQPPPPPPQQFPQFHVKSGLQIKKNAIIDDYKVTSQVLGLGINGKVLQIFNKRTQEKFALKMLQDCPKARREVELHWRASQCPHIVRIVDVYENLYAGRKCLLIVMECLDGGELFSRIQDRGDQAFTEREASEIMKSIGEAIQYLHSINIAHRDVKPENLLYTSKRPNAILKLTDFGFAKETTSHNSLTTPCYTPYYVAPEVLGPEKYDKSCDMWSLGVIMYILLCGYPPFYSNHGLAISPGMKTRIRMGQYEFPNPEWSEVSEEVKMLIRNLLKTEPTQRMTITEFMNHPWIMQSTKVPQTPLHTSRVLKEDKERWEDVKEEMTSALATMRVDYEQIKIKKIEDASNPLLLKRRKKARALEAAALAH
Sequence of Gsk3β (P49841 whole entry): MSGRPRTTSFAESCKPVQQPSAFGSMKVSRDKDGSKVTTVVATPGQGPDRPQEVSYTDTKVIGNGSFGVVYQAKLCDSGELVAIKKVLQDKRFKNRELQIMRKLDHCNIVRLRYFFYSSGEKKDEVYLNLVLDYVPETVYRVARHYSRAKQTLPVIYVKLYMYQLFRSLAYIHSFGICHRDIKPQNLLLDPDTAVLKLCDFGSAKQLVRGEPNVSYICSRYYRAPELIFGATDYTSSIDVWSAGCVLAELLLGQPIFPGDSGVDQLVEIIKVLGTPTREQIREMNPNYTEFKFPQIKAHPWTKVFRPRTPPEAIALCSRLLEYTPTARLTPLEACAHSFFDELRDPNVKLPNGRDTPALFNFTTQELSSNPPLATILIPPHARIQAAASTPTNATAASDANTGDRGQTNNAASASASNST
Sequence of Csk (P41240 whole entry): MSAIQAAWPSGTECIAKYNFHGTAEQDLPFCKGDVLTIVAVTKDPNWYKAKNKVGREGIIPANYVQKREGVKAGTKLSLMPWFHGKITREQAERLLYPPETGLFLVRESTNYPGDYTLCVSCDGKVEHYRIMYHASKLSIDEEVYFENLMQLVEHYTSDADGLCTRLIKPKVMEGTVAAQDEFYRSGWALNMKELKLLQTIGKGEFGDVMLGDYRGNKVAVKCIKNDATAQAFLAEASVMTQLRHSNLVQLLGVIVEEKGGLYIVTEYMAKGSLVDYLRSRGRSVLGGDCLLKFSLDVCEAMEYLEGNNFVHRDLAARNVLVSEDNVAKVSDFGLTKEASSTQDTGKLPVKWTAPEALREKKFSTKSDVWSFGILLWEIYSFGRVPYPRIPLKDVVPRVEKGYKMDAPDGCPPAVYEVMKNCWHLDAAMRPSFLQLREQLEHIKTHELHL
Sequence of Hck (P08631 whole entry): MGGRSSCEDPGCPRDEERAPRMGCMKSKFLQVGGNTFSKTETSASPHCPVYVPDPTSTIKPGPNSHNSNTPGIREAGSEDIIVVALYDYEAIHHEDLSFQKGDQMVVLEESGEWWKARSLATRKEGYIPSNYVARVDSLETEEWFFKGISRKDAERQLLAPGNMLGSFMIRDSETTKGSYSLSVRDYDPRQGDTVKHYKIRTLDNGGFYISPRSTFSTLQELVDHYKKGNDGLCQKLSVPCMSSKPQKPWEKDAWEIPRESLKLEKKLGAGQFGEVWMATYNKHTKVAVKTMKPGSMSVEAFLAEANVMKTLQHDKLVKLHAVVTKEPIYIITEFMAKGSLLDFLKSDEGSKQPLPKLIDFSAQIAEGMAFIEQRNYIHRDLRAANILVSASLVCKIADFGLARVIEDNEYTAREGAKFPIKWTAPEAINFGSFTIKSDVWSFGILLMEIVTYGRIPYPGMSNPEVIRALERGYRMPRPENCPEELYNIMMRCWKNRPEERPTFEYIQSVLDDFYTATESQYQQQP
T1 sequence (P35968 20-1356): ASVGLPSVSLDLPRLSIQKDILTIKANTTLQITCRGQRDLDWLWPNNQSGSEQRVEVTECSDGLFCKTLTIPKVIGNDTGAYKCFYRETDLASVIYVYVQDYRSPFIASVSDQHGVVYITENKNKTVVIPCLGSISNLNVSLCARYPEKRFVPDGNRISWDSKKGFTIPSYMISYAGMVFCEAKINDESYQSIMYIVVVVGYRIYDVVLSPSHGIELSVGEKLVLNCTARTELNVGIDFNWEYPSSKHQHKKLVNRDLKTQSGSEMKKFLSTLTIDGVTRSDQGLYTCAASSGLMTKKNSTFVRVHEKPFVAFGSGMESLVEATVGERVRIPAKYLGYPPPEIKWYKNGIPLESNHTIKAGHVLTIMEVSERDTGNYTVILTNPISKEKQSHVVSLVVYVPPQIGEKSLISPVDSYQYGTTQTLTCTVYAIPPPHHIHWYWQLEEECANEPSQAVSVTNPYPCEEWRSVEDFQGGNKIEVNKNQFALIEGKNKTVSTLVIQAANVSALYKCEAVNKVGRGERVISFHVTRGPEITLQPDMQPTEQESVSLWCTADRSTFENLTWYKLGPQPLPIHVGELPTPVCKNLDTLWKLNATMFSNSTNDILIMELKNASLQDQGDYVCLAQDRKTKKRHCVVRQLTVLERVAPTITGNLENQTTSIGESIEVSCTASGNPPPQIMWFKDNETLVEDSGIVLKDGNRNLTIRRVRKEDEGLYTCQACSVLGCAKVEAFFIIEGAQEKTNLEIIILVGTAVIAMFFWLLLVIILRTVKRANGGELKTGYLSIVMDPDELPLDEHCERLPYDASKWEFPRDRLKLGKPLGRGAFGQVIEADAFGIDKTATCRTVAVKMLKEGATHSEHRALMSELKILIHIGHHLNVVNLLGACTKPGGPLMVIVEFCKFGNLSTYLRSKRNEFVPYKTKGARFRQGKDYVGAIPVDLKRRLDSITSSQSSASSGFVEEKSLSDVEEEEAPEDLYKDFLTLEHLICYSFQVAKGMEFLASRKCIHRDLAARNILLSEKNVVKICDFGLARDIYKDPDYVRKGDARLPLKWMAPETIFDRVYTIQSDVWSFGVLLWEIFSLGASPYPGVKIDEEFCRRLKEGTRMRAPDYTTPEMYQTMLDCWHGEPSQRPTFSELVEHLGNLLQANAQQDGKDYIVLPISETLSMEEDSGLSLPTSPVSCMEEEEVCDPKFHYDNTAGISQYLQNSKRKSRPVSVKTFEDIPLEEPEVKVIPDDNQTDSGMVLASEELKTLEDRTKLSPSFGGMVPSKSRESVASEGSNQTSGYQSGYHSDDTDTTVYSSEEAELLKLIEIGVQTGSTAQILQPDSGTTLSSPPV
Sequence of PDGFRA (P16234 24-1089): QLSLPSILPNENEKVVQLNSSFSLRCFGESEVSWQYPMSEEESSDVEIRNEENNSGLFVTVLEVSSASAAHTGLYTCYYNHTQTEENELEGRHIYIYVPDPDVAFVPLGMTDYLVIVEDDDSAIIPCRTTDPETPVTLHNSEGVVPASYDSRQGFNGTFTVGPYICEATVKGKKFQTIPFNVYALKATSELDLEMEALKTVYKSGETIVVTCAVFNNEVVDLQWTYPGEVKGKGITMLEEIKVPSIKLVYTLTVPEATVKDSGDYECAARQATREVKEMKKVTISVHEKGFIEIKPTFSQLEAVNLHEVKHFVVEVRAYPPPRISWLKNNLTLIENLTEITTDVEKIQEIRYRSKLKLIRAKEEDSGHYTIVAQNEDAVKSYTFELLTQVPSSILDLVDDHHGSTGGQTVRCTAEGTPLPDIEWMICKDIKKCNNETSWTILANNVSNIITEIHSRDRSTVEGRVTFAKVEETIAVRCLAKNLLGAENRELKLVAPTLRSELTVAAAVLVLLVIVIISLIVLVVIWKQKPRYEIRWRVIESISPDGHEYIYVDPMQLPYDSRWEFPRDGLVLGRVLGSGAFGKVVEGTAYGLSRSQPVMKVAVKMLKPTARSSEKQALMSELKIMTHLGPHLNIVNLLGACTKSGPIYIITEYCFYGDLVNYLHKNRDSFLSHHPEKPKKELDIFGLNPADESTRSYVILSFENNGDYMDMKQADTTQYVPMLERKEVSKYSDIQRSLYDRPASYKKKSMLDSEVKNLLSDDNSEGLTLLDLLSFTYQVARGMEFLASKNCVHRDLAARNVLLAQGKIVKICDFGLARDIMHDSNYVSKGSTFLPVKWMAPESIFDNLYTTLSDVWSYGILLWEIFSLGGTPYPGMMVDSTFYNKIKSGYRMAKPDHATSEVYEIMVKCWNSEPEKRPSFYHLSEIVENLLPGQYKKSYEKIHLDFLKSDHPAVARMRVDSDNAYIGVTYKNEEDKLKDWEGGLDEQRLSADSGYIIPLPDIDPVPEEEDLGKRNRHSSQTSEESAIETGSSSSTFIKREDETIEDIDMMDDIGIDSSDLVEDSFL
T10 sequence (P11362 458-765 C488A/C584S): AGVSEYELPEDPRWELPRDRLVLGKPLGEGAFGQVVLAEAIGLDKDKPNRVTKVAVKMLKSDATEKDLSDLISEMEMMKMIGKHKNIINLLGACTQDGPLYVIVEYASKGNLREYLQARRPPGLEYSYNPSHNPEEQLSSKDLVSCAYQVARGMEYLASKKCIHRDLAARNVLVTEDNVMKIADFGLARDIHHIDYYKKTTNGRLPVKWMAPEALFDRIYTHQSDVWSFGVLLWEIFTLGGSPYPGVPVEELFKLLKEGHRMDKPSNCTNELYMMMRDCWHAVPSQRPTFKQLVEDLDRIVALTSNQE

FC(F)(F)c1cccc(-c2ccnc3[nH]cc(Sc4ccncc4)c23)c1 [Compound P-0226]
≤ 10 µM: Kdr | MAPKAPK2 | Gsk3β

Cc1cccc(-c2ccnc3[nH]cc(Sc4cccs4)c23)c1 [Compound P-0104]
≤ 10 µM: Stk6 | MAPKAPK2 | Gsk3β

O=C(c1c(F)ccc(NS(=O)(=O)c2ccccc2)c1F)c1c[nH]c2ncc(Cl)cc12 [Compound P-0885, N-[3-(5-Chloro-1H-pyrrolo[2,3-b]pyridine-3-carbonyl)-2,4-difluorophenyl]-benzenesulfonamide]
not listed: Kdr | MAPKAPK2 | Gsk3β | IKK beta | Pyk2
≤ 10 µM: all other assays above

CCCS(=O)(=O)Nc1ccc(F)c(C(=O)c2c[nH]c3ncc(Cl)cc23)c1F [Compound P-0933, Propane-1-sulfonic acid [3-(5-chloro-1H-pyrrolo[2,3-b]pyridine-3-carbonyl)-2,4-difluoro-phenyl]-amide]
≤ 10 µM: Fak | Frk | PDGFRA | Stk6 | Src | FGFR1 | Brk | Kit | MAP4K4 | Csk | Hck

O=C(O)c1ccc(Sc2c[nH]c3ncccc23)nc1 [Compound P-0086]
≤ 10 µM: Kdr | IKK beta | Stk6 | Pyk2 | Kit | MAPKAPK2 | Gsk3β

— patent US8415469B2, “Compounds and methods for kinase modulation, and indications therefor” (Plexxikon Inc., priority 2005, dated 2013)
